Laboratory results from US9181263B2, “Inhibitors of bruton's tyrosine kinase” (PHARMACYCLICS, INC., priority 2007, dated 2015).
“Also recorded” adds a separate entry of the source. Each block holds one compound with its values, some of them ahead of it.

Experiments:
[1] = Glutathione binding assay; assay type: physicochemical; conditions: 5 mM glutathione, 10 μM inhibitor, potassium phosphate buffer, room temperature, HPLC
Experimental: A calculated value (e.g (1/Btk IC50)/Glutathione conjugation rate) as shown in the Table 2) is used to compare compounds for their ratio between potency at inhibiting their target and their non-specific binding to other SH groups, such as those in glutathione. […] Calculated ratios such as these are used to quantitatively compare different compounds and select compounds for further study.
For the glutathione binding assays, 5 mM glutathione, 10 μM Btk inhibitor in DMSO (10 μL) and 6 equivalents of N′N′ Diisopropyl ethyl amine were combined in 1 mL potassium phosphate buffer. The mixture was incubated for 0, 15, 60 minutes at room temperature and the reaction was stopped with 10 equivalents of formic acid. 50 μL of each reaction mixture was injected on HPLC (Mobil Phase A: 0.2% formic acid in water, Mobile Phase B: 0.2% formic acid in acetonitrile, HPLC Column: Metasil Basic 3μ, 150×4.6 mm, 10% B, Gradient: 10% to 90% B, Detection: UV/Vis […]). Rate of reaction was reported as nmole GSH conjugate conversion per minute from the normalized ratio for area under the curve from HPLC chromatograms for both GSH conjugate and the parent.

[2] = Plasma concentrations after oral dosing of rats; assay type: in vivo, male jugular vein cannulated rats; conditions: rat plasma, single 8 mg/kg dose by oral gavage, dosed in combination
Experimental: Blood samples were collected at 0.0833 (5 minutes), 0.333 (20 minutes), 1, 3, 6, 9, and 24 hours post-dosing from orally dosed rats.
Male jugular vein cannulated rats were administered a single dose of all test compounds at 8 mg/kg each, in combination by oral gavage. Dose volumes were adjusted based on body weight data collected immediately prior to dosing. Blood samples were collected at 0.0833 (5 minutes), 0.333 (20 minutes), 1, 3, 6, 9, and 24 hours post-dosing from orally dosed rats. The samples were collected into plasma separator Microtainer tubes with anticoagulant (lithium heparin). Plasma samples were prepared by centrifugation (5 min at 5000×g), and at least 100 μL were transferred to storage tubes and stored frozen at −80° C. Plasma samples were thawed and 75 uL aliquots were transferred to centrifuge tubes to which 10 μL aliquots of internal standard solution (1 μg/mL) were added. The samples were not diluted with blank plasma prior to further processing. Soluble proteins were precipitated by the addition of 200 μL of acetonitrile, followed by centrifugation (20 min at 16,000×g). The samples were evaporated to dryness and reconstituted in 200 μL of water containing 0.2% formic acid and 10% methanol. All samples were loaded onto an autosampler maintained at 6° C. and evaluated for concentrations of test compounds using LC-MS/MS.

Egr-1 = assay: Expression of ERK transcriptional target Egr-1; assay type: cell-based; conditions: 1 uM
[3] = test system: pERK / BCR signal transduction pathway in Ramos cells; assay: BCR pathway phosphorylation (phospho-specific antibodies) in Ramos; assay type: cell-based
From the text: (§1) To identify biomarkers that correlate with response to Compound 1, phosphorylation events in the BCR signal transduction pathway were investigated.
(§2) However, when we examined basal phosphorylation levels, we found higher basal phosphorylation in DOHH2 compared to Ramos, with phospho-ERK in particular indicating higher levels of basal or tonic signaling in DOHH2.

[4] = test system: pERK / BCR signal transduction pathway in DOHH2 cells; assay: BCR pathway phosphorylation (phospho-specific antibodies) in DOHH2; assay type: cell-based
From the text: as §1, §2

BTK = BTK (Homo sapiens (Human), UniProt Q06187); assay: HotSpot kinase assay, BTK; assay type: biochemical; conditions: purified enzyme, 33P-ATP, 1 uM ATP
[5] = target: panel of greater than 100 kinases (Tec family kinases including Btk, Src family kinases); assay: In vitro profiling against a panel of greater than 100 kinases; assay type: biochemical
From the text: By way of example only and in some embodiments, the observed potency, selectivity, and cell permeability of compounds such as Compound 2 are appropriate to incorporate these molecules into a Kinase-targeted, activity based probe that allows direct visualization of Kinase activity in intact cells. […] Without limiting the scope of the compositions and methods described herein, it is postulated that the structural basis for the selectivity is covalent modification of a non-catalytic cysteine residue (Cys 481 in Btk) that is conserved in the ATP binding pocket of the Tec family and several other kinases.

[6] = test system: collagen-induced arthritis (paw inflammation); assay: Collagen-induced arthritis in the mouse; assay type: in vivo, male DBA/1OlaHsd mice
Experimental: […]. Compound for vehicle was dosed orally once per day starting at day 1. Dexamethasone was included as a positive control. Paw inflammation was scored from 0-5 and averaged across all paws from all animals for each group in the study.
. After paw inflammation was established, animals were randomized and Compound for vehicle was dosed orally once per day starting at day 1. Paw inflammation was scored from 0-5 and averaged across all paws from all animals for each group in the study. […] Dexamethasone was included as a positive control.

lymphoma cell lines = assay: In vitro cell proliferation, variety of lymphoma cell lines; assay type: cell-based; conditions: 72 hours
Experimental: (§3) After 72 hours, cell number was measured using Alamar Blue using manufacturer's protocol. A dilution series of untreated cells was run in parallel to verify that the Alamar Blue assay reliably reflected cell number and that growth conditions were not limiting. […] GI50 values were confirmed in two or more separate experiments for each cell line.

[7] = test system: Btk expressing B cell lymphoma cell lines; assay: Panel of nine Btk expressing B cell lymphoma cell lines, sensitivity vs basal pERK; assay type: cell-based
Experimental: as §3
A panel of nine Btk expressing B cell lymphoma cell lines was screened for basal pERK levels.

Ramos cells = assay: Cell proliferation, Ramos cell line; assay type: cell-based
Experimental: as §3, §1

DOHH2 xenograft = assay: DOHH2 lymphoma xenograft model; assay type: in vivo; conditions: DOHH2 xenograft in SCID mice, dosed orally
DLCL2 xenograft = assay: DLCL2 lymphoma xenograft model; assay type: in vivo; conditions: DLCL2 xenograft in SCID mice, dosed orally
[8] = test system: MRL/lpr model of lupus (proteinuria); assay: Mouse MRL/lpr model of lupus; assay type: in vivo, MRL/lpr mice
From the text: FIG. 3 presents an illustrative line graph showing inhibition of disease progression in a mouse MRL/lpr model of lupus.

mast cell degranulation = assay: Mouse passive cutaneous anaphylaxis model; assay type: in vivo, mice; conditions: single oral dose, increasing doses, 1 hour before DNP-BSA challenge
Experimental: FIG. 4 presents an illustrative bar graph showing inhibition of mast cell degranulation in a mouse passive cutaneous anaphylaxis model. […] After one hour, animals were challenged with an intravenous injection of DNP-BSA and Evans Blue dye and the area of extravasation was measured.
Mice were sensitized with an intradermal injection of monoclonal anti-DNP-IgE in the back. […] After one hour, animals were challenged with an intravenous injection of DNP-BSA and Evans Blue dye. Mast cell degranulation leads to vascular permeability and the distribution of the dye into the skin of the back. The area of extravasation after 1 hour is measured.

normal human B cells = assay: B cell activation after brief exposure and washout (CD69); assay type: cell-based; conditions: 1 hour exposure, washed three times, then IgM F(ab')2 stimulation for 18 hours
Experimental: (§4) B cells were purified from blood from healthy donors by negative selecting using the RosetteSep Human B cell enrichment cocktail. […] After incubation for 1 hour at 37° C., cells were washed three times using an 8-fold dilution in growth media for each wash. Cells were then stimulated with IgM F(ab′)2 for 18 hours at 37° C., stained with anti-CD69-PE antibody and analyzed by flow cytometry.
as §4, with “stimulated with 10 ug/ml of IgM F(ab′)2” for “stimulated with IgM F(ab′)2”, “at 37° C. Cells were then stained with” for “at 37° C., stained with”, “by flow cytometry using standard conditions.” for “by flow cytometry.”

EGFR = EGFR (Homo sapiens (Human), UniProt P00533); assay: HotSpot kinase assay, EGFR; assay type: biochemical; conditions: purified enzyme, 33P-ATP, 1 uM ATP; printed EFGR in Table 1
[9] = 12.5 mg/kg orally once per day, to day 11
[10] = 50 mg/kg orally once per day, to day 11

Sequence of BTK (Q06187 whole entry): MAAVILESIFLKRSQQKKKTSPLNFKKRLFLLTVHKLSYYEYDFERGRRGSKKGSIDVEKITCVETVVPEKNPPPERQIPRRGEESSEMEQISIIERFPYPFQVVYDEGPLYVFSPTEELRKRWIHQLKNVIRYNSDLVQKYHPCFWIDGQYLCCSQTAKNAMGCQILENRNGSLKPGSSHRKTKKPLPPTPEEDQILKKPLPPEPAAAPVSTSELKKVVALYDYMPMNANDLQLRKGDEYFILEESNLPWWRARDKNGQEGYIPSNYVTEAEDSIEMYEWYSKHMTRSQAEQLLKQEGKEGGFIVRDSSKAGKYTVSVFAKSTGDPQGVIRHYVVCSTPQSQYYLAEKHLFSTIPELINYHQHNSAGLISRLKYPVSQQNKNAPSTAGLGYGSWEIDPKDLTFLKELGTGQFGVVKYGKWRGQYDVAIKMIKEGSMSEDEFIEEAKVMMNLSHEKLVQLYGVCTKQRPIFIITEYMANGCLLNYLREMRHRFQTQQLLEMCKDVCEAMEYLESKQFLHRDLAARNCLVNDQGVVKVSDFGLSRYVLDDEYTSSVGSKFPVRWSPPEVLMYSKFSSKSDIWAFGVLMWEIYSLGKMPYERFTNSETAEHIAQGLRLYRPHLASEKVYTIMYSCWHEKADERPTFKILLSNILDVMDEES
Sequence of EGFR (P00533 25-1210): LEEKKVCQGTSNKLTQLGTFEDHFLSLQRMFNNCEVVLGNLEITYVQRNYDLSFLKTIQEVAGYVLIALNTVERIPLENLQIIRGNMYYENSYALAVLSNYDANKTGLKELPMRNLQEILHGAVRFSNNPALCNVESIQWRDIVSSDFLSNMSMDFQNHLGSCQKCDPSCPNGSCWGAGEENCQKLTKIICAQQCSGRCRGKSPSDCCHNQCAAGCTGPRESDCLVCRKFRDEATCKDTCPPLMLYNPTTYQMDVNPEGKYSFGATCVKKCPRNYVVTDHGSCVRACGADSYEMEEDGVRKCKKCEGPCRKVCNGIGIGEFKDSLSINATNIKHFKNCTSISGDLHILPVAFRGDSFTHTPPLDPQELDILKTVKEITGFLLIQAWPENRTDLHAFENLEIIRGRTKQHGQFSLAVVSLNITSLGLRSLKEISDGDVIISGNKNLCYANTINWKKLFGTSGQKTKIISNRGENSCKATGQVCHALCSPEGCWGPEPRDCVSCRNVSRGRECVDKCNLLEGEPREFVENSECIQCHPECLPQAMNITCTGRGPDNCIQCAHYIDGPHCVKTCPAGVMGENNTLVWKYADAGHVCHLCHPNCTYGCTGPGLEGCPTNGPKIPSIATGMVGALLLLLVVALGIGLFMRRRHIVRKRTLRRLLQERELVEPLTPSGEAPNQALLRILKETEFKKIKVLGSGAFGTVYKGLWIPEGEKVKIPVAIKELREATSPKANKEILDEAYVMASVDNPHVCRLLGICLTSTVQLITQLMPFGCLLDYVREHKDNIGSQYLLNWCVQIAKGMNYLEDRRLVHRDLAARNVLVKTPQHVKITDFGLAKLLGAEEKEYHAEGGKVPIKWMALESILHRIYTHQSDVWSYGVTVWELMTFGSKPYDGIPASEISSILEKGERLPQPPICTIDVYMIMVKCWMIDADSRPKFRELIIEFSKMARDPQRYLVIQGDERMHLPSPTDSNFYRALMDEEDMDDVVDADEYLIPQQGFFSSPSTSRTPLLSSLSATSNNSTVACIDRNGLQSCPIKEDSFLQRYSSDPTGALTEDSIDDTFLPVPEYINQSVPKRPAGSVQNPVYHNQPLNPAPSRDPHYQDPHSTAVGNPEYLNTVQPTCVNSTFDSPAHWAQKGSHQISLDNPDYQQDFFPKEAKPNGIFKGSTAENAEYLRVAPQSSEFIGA

Glutathione Conj Rate [1]: 0.39 nmol/min
Compound: C=CC(=O)N1CCC(n2nc(-c3ccc(Oc4ccccc4)cc3)c3c(N)ncnc32)CC1 [Compound 6]

Glutathione Conj Rate [1]: 0.014 nmol/min
Compound: CC#CC(=O)N[C@H]1CC[C@@H](n2nc(-c3ccc(Oc4ccccc4)cc3)c3c(N)ncnc32)CC1 [Compound 22, N-((1s,4s)-4-(4-amino-3-(4-phenoxyphenyl)-1H-pyrazolo[3,4-d]pyrimidin-1-yl)cyclohexyl)but-2-ynamide]

in vivo half-life [2]: significantly longer in vivo half-life
Compound: CN(C)C/C=C/C(=O)N[C@H]1CC[C@@H](n2nc(-c3ccc(Oc4ccccc4)cc3)c3c(N)ncnc32)CC1 [Compound 8, (E)-N-((1s,4s)-4-(4-amino-3-(4-phenoxyphenyl)-1H-pyrazolo[3,4-d]pyrimidin-1-yl)cyclohexyl)-4-(dimethylamino)but-2-enamide]

Glutathione Conj Rate [1]: 0.004361 nmol/min
in vivo half-life [2]: short half-life in vivo
Compound: CN(C)C/C=C/C(=O)N1CCC[C@H]1Cn1nc(-c2ccc(Oc3ccccc3)cc2)c2c(N)ncnc21 [Compound 12, (E)-1-((S)-2-((4-amino-3-(4-phenoxyphenyl)-1H-pyrazolo[3,4-d]pyrimidin-1-yl)methyl)pyrolidin-1-yl)-4-(dimethylamino)but-2-en-1-one]

Glutathione Conj Rate [1]: 0.01 nmol/min
in vivo half-life [2]: significantly longer in vivo half-life
Compound: CN(C)C/C=C/C(=O)N1CCC(n2nc(-c3ccc(Oc4ccccc4)cc3)c3c(N)ncnc32)CC1 [Compound 7, (E)-1-(4-(4-amino-3-(4-phenoxyphenyl)-1H-pyrazolo[3,4-d]pyrimidin-1-yl)piperidin-1-yl)-4-(dimethylamino)but-2-en-1-one]

Glutathione Conj Rate [1]: 0.0243 nmol/min
Compound: CC#CC(=O)N1CCC[C@@H](n2nc(-c3ccc(Oc4ccccc4)cc3)c3c(N)ncnc32)C1 [Compound 17, 1-((R)-3-(4-amino-3-(4-phenoxyphenyl)-1H-pyrazolo[3,4-d]pyrimidin-1-yl)piperidin-1-yl)but-2-yn-1-one]

Glutathione Conj Rate [1]: 0.004 nmol/min
Compound: Nc1ncnc2c1c(-c1ccc(Oc3ccccc3)cc1)nn2C1CCCN(C(=O)/C=C/CN2CCOCC2)C1 (centres unmarked) [Compound 5, (E)-1-(3-(4-amino-3-(4-phenoxyphenyl)-1H-pyrazolo[3,4-d]pyrimidin-1-yl)piperidin-1-yl)-4-morpholinobut-2-en-1-one]

Further lines, the compound ahead of its results:

Compound: Nc1ncnc2c1c(-c1ccc(Oc3ccccc3)cc1)nn2C1CCCN(C(=O)/C=C/c2c[nH]cn2)C1 (centres unmarked) [Compound 4]
time to reduced Egr-1 expression (Egr-1): ≤ 1 h
maximal downregulation of Egr-1 expression (Egr-1; achieved by 4 hr): 10 fold
decrease of pERK levels ([3]; unstimulated Ramos cells (basal)): not
IC50 ([4]; unstimulated DOHH2 cells (basal), read-out: pERK levels IC50): < 0.01 µM
IC50 (BTK): 0.0222 µM

Compound: CN(C)C/C=C/C(=O)N1CCC[C@@H](n2nc(-c3ccc(Oc4ccccc4)cc3)c3c(N)ncnc32)C1 [Compound 2]
kinase panel profile [5]: highly potent and selective inhibitor of Tec family kinases, including, Btk, as well as Src family kinases

Compound: C=CC(=O)N[C@H]1CC[C@@H](n2nc(-c3ccc(Oc4ccccc4)cc3)c3c(N)ncnc32)CC1 [Compound 9]
paw inflammation [6, 9]: reduced the increase in paw inflammation
paw inflammation [6, 10]: reduced the increase in paw inflammation

Compound: C=CC(=O)N1CCC[C@@H](n2nc(-c3ccc(Oc4ccccc4)cc3)c3c(N)ncnc32)C1 [Compound 1]
Glutathione Conj Rate [1]: 0.398 nmol/min
lymphoma tumor cell growth (lymphoma cell lines): inhibits lymphoma tumor cell growth
GI50 ([7]; 5 of the seven lines with significantly higher basal pERK): < 1.3 µM
sensitivity of cell lines to compound ([7]; the two cell lines with low pERK levels): resistant
BCR-stimulus induced phosphorylation events ([3]; Ramos, anti-IgM or anti-IgG cross-linking): inhibits most BCR-stimulus induced phosphorylation events
sensitivity of cell line to compound (Ramos cells): resistant
tumor growth (DOHH2 xenograft): inhibition of tumor growth; also recorded: inhibits tumor growth
BCR-stimulus induced phosphorylation events ([4]; DOHH2, anti-IgM or anti-IgG cross-linking): inhibits most BCR-stimulus induced phosphorylation events
tumor growth (DLCL2 xenograft): inhibition of tumor growth; also recorded: inhibits tumor growth
in vivo half-life [2]: short half-life in vivo
proteinuria (urine protein levels) ([8]; 3.125 mg/kg orally once per day until 20 weeks of age): significantly reduced proteinuria
proteinuria (urine protein levels) ([8]; 12.5 mg/kg orally once per day until 20 weeks of age): significantly reduced proteinuria
proteinuria (urine protein levels) ([8]; 50 mg/kg orally once per day until 20 weeks of age): significantly reduced proteinuria
paw inflammation ([6]; 3.125 mg/kg orally once per day, to day 11): significantly reduced the increase in paw inflammation
paw inflammation ([6]; 12.5 mg/kg intermittent dosing: days 1, 2, 3 or days 9, 10, 11 of an 11-day period): reduced the increase in paw inflammation
paw inflammation [6, 9]: regressed inflammation
paw inflammation [6, 10]: regressed inflammation
amount of Evans Blue release (area of extravasation) (mast cell degranulation): significantly decrease the amount of Evans Blue release
B cell activation (CD69) (normal human B cells): sufficient to inhibit B cell activation

Compound: CN(C/C=C/C(=O)N1CCCC(n2nc(-c3ccc(Oc4ccccc4)cc3)c3c(N)ncnc32)C1)CCO (centres unmarked) [Compound 3]
IC50 (EGFR): 0.0745 µM
IC50 (BTK): 0.0021 µM
